# Experimental data: patent US20250163119A1, “COMPOUNDS FOR THE TREATMENT OF DIABETES OR OBESITY” (Eli Lilly and Company, priority 2023, published 2025)
# *1 amine or outer side, *2 acyl side, *3 side chain or, on linkers, in order; H or OH if unused. Where a SMILES comes first, the peptide text is derived from it. Bridges are numbered along the chain shown (N, C = ends). Roman numbers before positions name the chains, in order. Side-chain parts run from the residue outwards. [ ]: non-standard residue; d: D form. The star is where a group is joined. C20 diacid = O=C(O)CCCCCCCCCCCCCCCCCCC(=O)*; γGlu = O=C(O)[C@H](CCC(=O)[*:2])N[*:1]; εLys = N[C@@H](CCCCN[*:1])C(=O)[*:2]; αMeL = CC(C)C[C@](C)(N)C(=O)O; AEEA = NCCOCCOCC(=O)O; Aib = CC(C)(N)C(=O)O; βAla = NCCC(=O)O
# Tests used:
# [1] = molecular target: T1, human CRHR2 (Homo sapiens, UniProt Q13324); experiment: Human CRHR2 cAMP assay (HTRF) in HEK293 cells stably expressing human CRHR2; assay type: cell-based; conditions: HEK293 cells overexpressing human CRHR2; relative EC50, maximum 10 nM human UCN2; mean ± SE; read-out: hCRHR2 cAMP EC50 (pM, ± SE)
# T1 construct: expressed in transfected cells
# T1 sequence (Q13324 1-438 isoform Q13324-2): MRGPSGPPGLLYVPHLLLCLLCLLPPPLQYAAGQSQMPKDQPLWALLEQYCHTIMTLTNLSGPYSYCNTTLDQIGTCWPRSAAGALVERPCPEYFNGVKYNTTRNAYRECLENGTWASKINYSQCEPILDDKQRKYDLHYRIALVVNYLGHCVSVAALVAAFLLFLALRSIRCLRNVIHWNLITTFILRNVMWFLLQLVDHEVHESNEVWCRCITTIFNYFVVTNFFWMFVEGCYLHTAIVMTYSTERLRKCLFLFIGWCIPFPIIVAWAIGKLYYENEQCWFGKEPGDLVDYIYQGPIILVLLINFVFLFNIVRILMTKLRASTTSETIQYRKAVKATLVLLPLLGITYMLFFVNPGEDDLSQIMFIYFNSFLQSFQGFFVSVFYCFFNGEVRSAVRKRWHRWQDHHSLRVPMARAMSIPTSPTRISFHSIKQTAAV
# Experimental: (§1) The corticotropin-releasing hormone (CRH) receptor 1 and 2 (CRHR1 and CRHR2) are GPCRs that were functionally coupled to Gs proteins. Stimulation of these receptors results in an increased production of intracellular cAMP, which can be detected using standard in vitro technologies. In vitro activity of peptides was measured by the amount of cAMP formed in human CRHR1 and CRHR2 overexpressed cells.
# (§2) Human CRHR1 and CRHR2 receptors were stably expressed in human embryonic kidney cells (HEK293) under control of a pcDNA expression vector. The HEK293 cell line was cultured in DMEM 1× (Gibco, 93-0152DK) supplemented with 10% FBS, 1 mM sodium pyruvate, 1×MEM NEAA, 1× GlutaMAX and 10 mM HEPES. The plasmids of human CRHR1-pQCXIP (T7364) and human CRHR2b-R2683puro (T16761) DNA were transfected into HEK293 cells using Lipo fectAMINE 3000 Transfection reagent (Invitrogen, L3000001). After 20 days under selection, the mRNA levels from different clones were measured to confirm the expression of human CRHR1 and CRHR2 genes. To determine the function of over-expressed CRHR cells, the intracellular cAMP levels in response to human UCN1 and UCN2 were measured and compared to the expression of CRHR1 and CRHR2 mRNA in each clone.
# (§3) Human CRHR1 cells were cultured in DMEM 1× (Gibco, 93-0152DK) supplemented with 10% FBS, 1 mM sodium pyruvate, 1×MEM NEAA, 1×GlutaMAX, 10 mM HEPES, and 800 μg/ml G418. Human CRHR2 cells were cultured at the same media (DMEM 1×, 10% FBS, 1 mM sodium pyruvate, 1×MEM NEAA, 1×GlutaMAX, 10 mM HEPES) in the presence of 0.5 ug/mL puromycin. Cultured cells were grown to 90% confluency and harvested. The cells were frozen at 10×10e6/ml in a mixture of […] fetal bovine serum plus 7% DMSO and stored in liquid nitrogen until use.
# (§4) On the day of the assay, the frozen cells were thawed and diluted in assay buffer (Phenol Red free MEM (Corning, 17-305-CV, lot #32121010), 0.1% Casein (Sigma C4765, lot #SLCG2120), 5 mM HEPES pH 7.4 containing 0.25 mM IBMX). 10 ul of human CRHR1 cells (25,000 cells) or 10 μL of human CRHR2 cells (5,000 cells) were dispensed into each well of white poly-D-lysine coated 384-well plates (Corning cat #354661). Test compounds diluted in DMSO were added (200 nL/well) in a 1:3 dilution series using ECHO acoustic liquid handler (Beckman). The mixture of cells and test compounds were incubated at 37° C. for 1 hour for the hCRHR1 plate, while the CRHR2 plates were incubated at room temperature for 30 min.
# (§5) The amount of intracellular cAMP was quantitated using HTRF technology (Homogeneous Time Resolved Fluorescence; Cisbio) as per vendor instructions. Briefly, 10 uL CAMP-d2 conjugate and 10 uL anti-CAMP-cryptate conjugate in lysis buffer were incubated with the treated cells at room temperature for 60 min. The HTRF signal was immediately detected using an Envision plate reader (Perkin-Elmer) to calculate the ratio of fluorescence at 665 to 620 nm.
# (§6) Raw fluorescence data for concentration curves of the peptides in Table 2 and Table 3 were converted to cAMP amount (pmol/well) using a cAMP standard curve generated for each experiment.
# [2] = molecular target: T2, human CRHR1 (Homo sapiens, UniProt P34998); experiment: Human CRHR1 cAMP assay (HTRF) in HEK293 cells stably expressing human CRHR1; assay type: cell-based; conditions: HEK293 cells overexpressing human CRHR1; relative EC50, maximum 66 nM human UCN1; mean ± SE; read-out: hCRHR1 cAMP EC50 (pM, ± SE)
# T2 construct: expressed in transfected cells
# T2 sequence (P34998 24-415): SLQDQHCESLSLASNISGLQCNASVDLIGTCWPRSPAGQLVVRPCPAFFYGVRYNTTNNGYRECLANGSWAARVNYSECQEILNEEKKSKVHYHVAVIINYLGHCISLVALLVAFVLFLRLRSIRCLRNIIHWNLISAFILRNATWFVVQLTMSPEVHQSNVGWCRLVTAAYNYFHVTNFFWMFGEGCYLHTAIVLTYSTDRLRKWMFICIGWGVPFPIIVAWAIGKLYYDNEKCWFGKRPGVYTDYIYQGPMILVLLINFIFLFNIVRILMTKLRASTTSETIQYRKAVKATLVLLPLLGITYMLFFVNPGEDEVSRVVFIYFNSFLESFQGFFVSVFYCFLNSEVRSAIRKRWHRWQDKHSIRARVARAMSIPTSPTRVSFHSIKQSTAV
# Experimental: as §1, §2, §3, §4, §5, §6
Compound,EC50 [1] [pM],EC50 [2] [pM]
"CC[C@H](C)[C@H](NC(C)=O)C(=O)N[C@H](C(=O)N[C@H](C(=O)N[C@@H](CO)C(=O)N[C@@](C)(CC(C)C)C(=O)N[C@@H](CC(=O)O)C(=O)N[C@@H](C(=O)N1CCC[C@H]1C(=O)N[C@H](C(=O)NCC(=O)N[C@@](C)(CC(C)C)C(=O)N[C@@H](CC(C)C)C(=O)N[C@@H](CCC(N)=O)C(=O)N[C@H](C(=O)N[C@@H](CCCCN)C(=O)N[C@@H](CC(C)C)C(=O)N[C@@H](CCC(=O)O)C(=O)N[C@@H](CCC(N)=O)C(=O)N[C@@H](CCC(=O)O)C(=O)N[C@@H](CCCNC(=N)N)C(=O)N[C@@H](C)C(=O)N[C@@H](CCC(=O)O)C(=O)N[C@@H](CCCCN)C(=O)N[C@@H](C)C(=O)N[C@@H](CCCNC(=N)N)C(=O)N[C@@H](CCC(N)=O)C(=O)N[C@@H](CCC(N)=O)C(=O)N[C@@H](C)C(=O)N[C@@H](CCCCNC(=O)CNC(=O)[C@H](CCCCN)NC(=O)[C@H](CCC(=O)O)NC(=O)[C@H](CCCCN)NC(=O)[C@H](CCC(=O)O)NC(=O)[C@H](CCCCN)NC(=O)[C@H](CCC(=O)O)NC(=O)CC[C@H](NC(=O)CCCCCCCCCCCCCCCCCCC(=O)O)C(=O)O)C(=O)N[C@@H](CCC(=O)O)C(=O)N[C@@H](CC(N)=O)C(=O)N[C@H](C(=O)N[C@@H](CCC(=O)O)C(=O)N[C@H](C(=O)N[C@@H](CC(C)C)C(=O)N[C@@H](C)C(=O)N[C@@H](CCC(N)=O)C(=O)N[C@H](C(N)=O)C(C)C)[C@@H](C)CC)[C@@H](C)O)[C@@H](C)CC)[C@@H](C)O)C(C)C)[C@@H](C)O)C(C)C [SEQ ID NO: 43, Ac-IVTS αMeL D (D-Val) PTG αMeL LQIKLEQERAEKARQQAK(GKEKEKE-γE-CO-(CH2)18-CO2H)ENTEILAQV-NH2]",7.9 ± 1.3,> 1e+07
{C20 diacid}-K[AEEA][γGlu]GSPSIVTS[αMeL]DVPT[Aib][αMeL]LQKILEQERAEKARQQATEAAEILAQV-NH2 [SEQ ID NO: 26],6.9 ± 0.7,> 1e+07
"Ac-GSPSIVTS[αMeL]DVPT[Aib][αMeL]LQKILEQERAEKARQQAK([Gly-βAla-βAla-βAla-γGlu-C20 diacid])EAAEILAQV-NH2 [SEQ ID NO: 7, Ac-GSPSIVTS αMeL DVPT Aib αMeL LQKILEQERAEKARQQAK(G-(βA)3-γE-CO-(CH2)18-CO2H)EAAEILAQV-NH2]",10.6 ± 1.4,> 1e+07
"I: Ac-GSPSIVTS[αMeL]DVPT[Aib][αMeL]LQKILEQERAEKARQQAKEAAEILAQV-NH2 / II: {C20 diacid-γGlu}-EKEKEK[AEEA] (amide I:33-II:C) [SEQ ID NO: 9, Ac-GSPSIVTS αMeL DVPT Aib αMeL LQKILEQERAEKARQQAK((2-[2-(2-Amino-ethoxy)-ethoxy]-acetyl)-KEKEKE-γE-CO-(CH2)18-CO2H)EAAEILAQV-NH2]",15.5 ± 3.3,> 1e+07

# Stronger by EC50 [1], values ahead:
EC50 [1] [pM],EC50 [2] [pM],Compound
4.6 ± 0.6,1.1e+06,"CC[C@H](C)[C@H](NC(C)=O)C(=O)N[C@H](C(=O)N[C@H](C(=O)N[C@@H](CO)C(=O)N[C@@](C)(CC(C)C)C(=O)N[C@@H](CC(=O)O)C(=O)N[C@@H](C(=O)N1CCC[C@H]1C(=O)N[C@H](C(=O)NCC(=O)N[C@@](C)(CC(C)C)C(=O)N[C@@H](CC(C)C)C(=O)N[C@@H](CCC(N)=O)C(=O)N[C@H](C(=O)N[C@@H](CCCCN)C(=O)N[C@@H](CC(C)C)C(=O)N[C@@H](CCC(=O)O)C(=O)N[C@@H](CCC(N)=O)C(=O)N[C@@H](CCC(=O)O)C(=O)N[C@@H](CCCNC(=N)N)C(=O)N[C@@H](C)C(=O)N[C@@H](CCC(=O)O)C(=O)N[C@@H](CCCCN)C(=O)N[C@@H](C)C(=O)N[C@@H](CCCNC(=N)N)C(=O)N[C@@H](CCC(N)=O)C(=O)N[C@@H](CCC(N)=O)C(=O)N[C@@H](C)C(=O)N[C@@H](CCCCNC(=O)COCCOCCNC(=O)CC[C@H](NC(=O)[C@@H](N)CCCCNC(=O)CCCCCCCCCCCCCCCCCCC(=O)O)C(=O)O)C(=O)N[C@@H](CCC(=O)O)C(=O)N[C@@H](CC(N)=O)C(=O)N[C@H](C(=O)N[C@@H](CCC(=O)O)C(=O)N[C@H](C(=O)N[C@@H](CC(C)C)C(=O)N[C@@H](C)C(=O)N[C@@H](CCC(N)=O)C(=O)N[C@H](C(N)=O)C(C)C)[C@@H](C)CC)[C@@H](C)O)[C@@H](C)CC)[C@@H](C)O)C(C)C)[C@@H](C)O)C(C)C [SEQ ID NO: 33, Ac-IVTS αMeL D (D-Val) PTG αMeL LQIKLEQERAEKARQQAK((2-[2-(2-Amino-ethoxy)-ethoxy]-acetyl)-γE-ϵK-CO-(CH2)18-CO2H)ENTEILAQV-NH2] (Ac-IVTS[αMeL]D[dV]PTG[αMeL]LQIKLEQERAEKARQQAK([AEEA-γGlu-εLys-C20 diacid])ENTEILAQV-NH2)"
5.4 ± 0.7,> 1e+07,"CC[C@H](C)[C@H](NC(C)=O)C(=O)N[C@H](C(=O)N[C@H](C(=O)N[C@@H](CO)C(=O)N[C@@](C)(CC(C)C)C(=O)N[C@@H](CC(=O)O)C(=O)N[C@@H](C(=O)N1CCC[C@H]1C(=O)N[C@H](C(=O)NCC(=O)N[C@@](C)(CC(C)C)C(=O)N[C@@H](CC(C)C)C(=O)N[C@@H](CCC(N)=O)C(=O)N[C@H](C(=O)N[C@@H](CCCCN)C(=O)N[C@@H](CC(C)C)C(=O)N[C@@H](CCC(=O)O)C(=O)N[C@@H](CCC(N)=O)C(=O)N[C@@H](CCC(=O)O)C(=O)N[C@@H](CCCNC(=N)N)C(=O)N[C@@H](C)C(=O)N[C@@H](CCC(=O)O)C(=O)N[C@@H](CCCCN)C(=O)N[C@@H](C)C(=O)N[C@@H](CCCNC(=N)N)C(=O)N[C@@H](CCC(N)=O)C(=O)N[C@@H](CCC(N)=O)C(=O)N[C@@H](C)C(=O)N[C@@H](CCCCNC(=O)COCCOCCNC(=O)[C@@H](N)CCCCNC(=O)CC[C@H](NC(=O)CCCCCCCCCCCCCCCCCCC(=O)O)C(=O)O)C(=O)N[C@@H](CCC(=O)O)C(=O)N[C@@H](CC(N)=O)C(=O)N[C@H](C(=O)N[C@@H](CCC(=O)O)C(=O)N[C@H](C(=O)N[C@@H](CC(C)C)C(=O)N[C@@H](C)C(=O)N[C@@H](CCC(N)=O)C(=O)N[C@H](C(N)=O)C(C)C)[C@@H](C)CC)[C@@H](C)O)[C@@H](C)CC)[C@@H](C)O)C(C)C)[C@@H](C)O)C(C)C [SEQ ID NO: 32, Ac-IVTS αMeL D (D-Val) PTG αMeL LQIKLEQERAEKARQQAK((2-[2-(2-Amino-ethoxy)-ethoxy]-acetyl)-ϵK-γE-CO-(CH2)18-CO2H)ENTEILAQV-NH2] (Ac-IVTS[αMeL]D[dV]PTG[αMeL]LQIKLEQERAEKARQQAK([AEEA-εLys-γGlu-C20 diacid])ENTEILAQV-NH2)"
